In assay [1] the test system is PqsR-dependent pqsA::lux promoter fusion. As to the kind of experiment: pqsA::lux promoter fusion expression in P. aeruginosa PAO1-L (AQ-dependent QS biosensor). Type of assay: cell-based. The settings on record: for IC50: Pseudomonas aeruginosa, PAO1, read-out: IC50, pqsA::lux expression; for extent of inhibition of light output / pqsA expression at high concentrations: PAO1 pqsA::lux; for inhibition of pqsA::lux expression in first screening (FIG. 1-3): lactam 100 μM, control LB medium+1% methanol. The method, then: The expression of rhl and las AHL- and the pqsA AQ-synthase genes was evaluated using lux-based lasI (FIG. 1), rhlI (FIG. 2) and pqsA (FIG. 3) chromosomally integrated promoter fusions. Luminescence was quantified as a function of bacterial growth. The applicant further determined that none of the lactams is growth inhibitory at 100 μM using a large number of strains (figure not shown).
To determine the relative inhibitory activities (IC50s) of 4-(4-chlorophenyl)-5-methylene-pyrrol-2-one (Ref. 488) and 5-methylene-4-(p-tolyl)pyrrol-2-one (Ref. 491), dose response curves were constructed using the same biosensor strain (P. aeruginosa PAO1 pqsA::lux; Fletcher et al, 2007; Ilangovan et al 2013). This strain produces light in response to the endogenous production of AQs such as PQS and HHQ.

In assay [2] the test system is PqsR-independent pathway of pqsA expression. As to the kind of experiment: PqsR-independent expression of pqsA'::lux in PAO1-N ΔpqsAHR. It counts as cell-based, P. aeruginosa PAO1-N ΔpqsAHR. Particulars: presence or absence of 40 μM PQS. From the text:
PQS is capable of weakly activating pqsA in the absence of PqsR via a mechanism that is not fully understood but appears to depend on the iron chelating properties of PQS. The aim of this experiment was to clarify whether lactam 4-(4-chlorophenyl)-5-methylene-pyrrol-2-one (Ref. 488) is also inhibitory for pqsA expression via the PqsR independent pathway. As previously described, the pqsA′::lux biosensor based on the triple mutant PAO1-N ΔpqsAHR cannot produce AQs and lacks pqsR but still responds to exogenous PQS. This response is however much weaker that the PqsR-dependent response.

Assay [3] relates to pyocyanin production by PAO1-L. As to the kind of experiment: Pyocyanin production by PAO1-L, visual assessment. Type of assay: cell-based, P. aeruginosa PAO1-L. The settings on record: 488 at 100 μM (vial 2), 8 h at 37° C., PAO1-L culture supernatant. From the text: Pyocyanin is a blue redox-active secondary metabolite and a putative signalling molecule in P. aeruginosa (Jayaseelan et al, 2014). The pyocyanin biosynthetic (phz) genes are regulated by QS and in part via the transcriptional regulator PqsR acting through PqsE (Rampioni et al 2011).
Although qualitative, this observation offers further confirmation of the inhibitory effects of lactam 4-(4-chlorophenyl)-5-methylene-pyrrol-2-one (Ref. 488) on AQ-dependent QS.

For assay [4], the system named is enzymes (PqsABCD) involved in AQ biosynthesis. The assay is described as follows: HHQ/AQ biosynthesis in PAO1-N ΔpqsAHR pBBR-pqsABCD, TLC with biosensor overlay. It counts as cell-based, P. aeruginosa PAO1-N ΔpqsAHR. The settings on record: 488 200 μM, overnight in LB. From the text:
To determine whether 4-(4-chlorophenyl)-5-methylene-pyrrol-2-one (Ref. 488) is capable of inhibiting the enzymes (PqsABCD) involved in AQ biosynthesis, the P. aeruginosa PAO1-N ΔpqsAHR was exploited. This mutant cannot produce AQs because the genes coding for the key biosynthetic enzymes (PqsA and PqsH) and regulation (PqsR) have been deleted. To restore AQ production in a PqsR-independent manner in PAO1-N ΔpqsA, the pqsABCD genes were introduced on a plasmid (pBBR pqsABCD; Niewerth et al. 2011). P. aeruginosa PAO1-N ΔpqsAHR and P. aeruginosa PAO1-N ΔpqsAHR pBBR pqsABCD were both incubated overnight in LB with and without 4-(4-chlorophenyl)-5-methylene-pyrrol-2-one (Ref. 488) (200 μM), resuspended to an OD600 1.0. The cultures were extracted with acidified ethyl acetate, the organic phase removed, dried and resuspended in methanol subjected to thin layer chromatography (TLC).
After chromatography using a dichloromethane-methanol mobile phase, the TLC plates were overlaid with a thin agar layer containing the AQ biosensor strain PAO1-L ΔpqsA CTX::pqsA′-luxCDABE (Fletcher et al. 2007) incubated and examined for reporter output (FIG. 13). […] The biosensor strain produces light (FIG. 13 panel C) and pyocyanin (FIG. 13 panel B) in response to AQs that bind to PqsR and activate the pqsA promoter.

In a further assay the target is T1, PqsR (Pseudomonas aeruginosa, UniProt Q9I4X0).
T1 construct: endogenous in cells; host or cells: P. aeruginosa PAO1-L ΔpqsA pqsA::lux (chromosomal reporter fusion)
As to the kind of experiment: PQS-dependent pqsA::lux expression in AQ-non-producing PAO1-L ΔpqsA (PqsR antagonism). Type of assay: cell-based, P. aeruginosa PAO1-L ΔpqsA. As to the method: By using the AQ-non producing P. aeruginosa strain PAO1-L ΔpqsA, pqsA::lux, the EC50 value for the native PqsR agonist, PQS was calculated as ˜2 μM (Ilangovan et al. 2013). […]
A partial agonist is a molecule that can bind to and activate a receptor resulting in a non-complete response compared with a full agonist. […] This contrasts with its activity as an antagonist in the presence of 10 or 40 μM PQS.

Results on 2 molecules are retold here after patent US11083706B2, “Lactams for use in the treatment of skin lesions” (priority 2016, dated 2021).

Entries after “also recorded” stand apart in the source; their conditions may differ.

T1 sequence (Q9I4X0 whole entry, the tested form may be a part): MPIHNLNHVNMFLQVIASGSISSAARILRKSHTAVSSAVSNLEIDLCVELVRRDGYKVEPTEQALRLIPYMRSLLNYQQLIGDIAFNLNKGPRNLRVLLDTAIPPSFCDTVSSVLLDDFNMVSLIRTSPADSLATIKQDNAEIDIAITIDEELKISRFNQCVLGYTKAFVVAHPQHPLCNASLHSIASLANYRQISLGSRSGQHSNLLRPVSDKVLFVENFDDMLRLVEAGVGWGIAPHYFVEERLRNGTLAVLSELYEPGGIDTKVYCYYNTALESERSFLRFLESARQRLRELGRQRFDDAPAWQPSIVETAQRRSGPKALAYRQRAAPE

As usually defined, the IC50 is the concentration at which inhibition is half-maximal. In the case of `C=C1NC(=O)C=C1c1ccc(C)cc1` [Lactam 491, 5-methylene-4-(p-tolyl)pyrrol-2-one], in assay [1], the concentration for half-maximal inhibition (IC50) was found to be 44 µM, the “extent of inhibition of light output / pqsA expression at high concentrations” value was “did not inhibit pqsA expression as strongly; also recorded: did not give complete knock out” and the “inhibition of pqsA::lux expression in first screening (FIG. 1-3)” value is “inhibition of the pqs-system is the main effect”.
With `C=C1NC(=O)C=C1c1ccc(Cl)cc1` [Lactam 488, 4-(4-chlorophenyl)-5-methylene-pyrrol-2-one], the “effect on PqsR-independent expression of pqsA” value in assay [2] was “small inhibitory effect”. Also, in assay [1], the concentration for half-maximal inhibition (IC50) worked out at 22 µM, the “extent of inhibition of light output / pqsA expression at high concentrations” value was “completely inhibited light output; also recorded: fully knock out the PQS” and the “inhibition of pqsA::lux expression in first screening (FIG. 1-3)” value is recorded as “most potent inhibitor; also recorded: inhibition of the pqs-system is the main effect”. In addition, the “pyocyanin production (qualitative)” value in assay [3] is listed as “inhibition of pyocyanin production”. Also, in assay [4], the “inhibition of HHQ biosynthesis” value is listed as “did not inhibit HHQ biosynthesis”. Besides, the “mode of antagonism of PQS-dependent pqsA::lux expression” value on PqsR (488 at 0, 50, 100, 200 μM with range of PQS concentrations) was “competitive antagonist”. In addition, the “restoration of light output by PQS in the presence of 488” value on PqsR (488 at 50, 100, 200 μM) is recorded as “fully restoring light output in the presence of 50 μM but not 100 μM or 200 μM”. The “partial agonist activity (activation of pqsA expression)” value on PqsR (488 up to 800 μM, PQS 0 μM, PAO1-L ΔpqsA pqsA'::lux) is given as “no partial agonist activity”. On PqsR (fixed concentration of 488 (215 μM)), the “fold increase of PQS EC50 in the presence of 488” value is listed as around 15 fold.
